Source: patent US5200506A, “Process for preparing new thymopentin retro-inverso analogs and fragments thereof and the intermediates obtained therein” (Eniricerche S.p.A., priority 1987, dated 1993)
Where a SMILES comes first, the peptide text is derived from it.

Tests used:
[1] = tested on: spleen cells of mice incubated with SRBC; assay: Plaque forming cells test; type: in vivo
Procedure: As the in vivo test, the so-called "plaque forming cells" test described by N. Jerne (same reference as above), has been used. The test is carried out incubating spleen cells of mice who had received the test peptides, with SRBC and counting the number of plaques formed. In the actual practice, groups of 3 mice each, received about 1 ng/mouse of test peptide i.p. one hour after the antigen (SRBC) inoculation. Four days after this treatment, the spleen cells are removed and the test is immediately carried out.
The "plaque forming cells" test has been repeated also by treating the test mice with TP5 or with the corresponding retro-inverso analog TP5-RI1-2, three days before antigen (SRBC) injection.

cord blood cells (CBC) = assay: Rosette E formation test with sheep red blood cells; type: cell-based, human; conditions: overnight at 37° C.; for % formation of Rosette E: 5% CO2, blank 23; for % of live cells after incubation: 5% CO2, blank 100
Text: In particular, as the in vitro test, the Rosette E formation test has been performed both on peripheral blood […] (PBMC) and on cord blood cells (CBC). The CBC used give a percentage of Rosette E formation with sheep red blood cells (SRBC) of 20-40%. The test is based on the capability of human T cells of forming Rosette E with SRBC. The assay which has been carried out according to the metodology described by O.G.Bier at al. in Fundamentals of Immunology--Springer-Verlag (1981), consists in the incubation of CBC, with or without the test peptides, overnight at 37° C. in the presence of 5% CO2.

[2] = T.P.Tischio et al. 1979; cited from earlier work
in vitro = conditions: human, heparinized human plasma
Procedure: Incubations are carried out at 37° C., and aliquots (100 μl each) were collected at time intervals, blocked by treatment with 10% trifluoroacetic acid and centrifuged (10,000 rpm)
for 5'. Aliquots from the supernatant were assayed . by chromatography and the concentration of the test peptide at the different times was measured.

immune response = conditions: thymectomized mice, preliminary in vivo tests; L.Kisfaludy et al. 1983; cited from earlier work
[3] = mice, about 1 ng/mouse i.p. one hour after antigen (SRBC) inoculation, spleen cells four days later, blank 4.62
[4] = mice, about 1 ng/mouse i.p. one hour after antigen (SRBC) inoculation, spleen cells four days later, blank 42.000

Molecule: CC(C)[C@H](NC(=O)[C@H](CC(=O)O)NC(=O)[C@H](CCCCN)NC(=O)[C@@H](N)CCCN=C(N)N)C(=O)N[C@@H](Cc1ccc(O)cc1)C(=O)O [TP5, H-Arg-Lys-Asp-Val-Tyr-OH] (H-RKDVY-OH)
- Log Number of plaques ([1]; mice treated three days before antigen (SRBC) injection, blank 4.64): 4.79
- Number of plaques formed ([1]; mice treated three days before antigen (SRBC) injection, blank 44.000): 62.000
- Log Number of plaques [1, 3]: 4.68
- Number of plaques formed [1, 4]: 48.375
- % formation of Rosette E (cord blood cells (CBC); 10 ng/ml): 28%
- % of live cells after incubation (cord blood cells (CBC); 10 ng/ml): 65%
- % formation of Rosette E (cord blood cells (CBC); 100 ng/ml): 33%
- % of live cells after incubation (cord blood cells (CBC); 100 ng/ml): 65%
- half-life in serum [2]: approximately 1.5 minute

Molecule: CC(C)[C@H](NC(=O)[C@H](CC(=O)O)NC(=O)C(CCCCN)C(=O)N[C@@H](N)CCCNC(=N)N)C(=O)N[C@@H](Cc1ccc(O)cc1)C(=O)O (stereo partly drawn) [TP5-RI1-2, AcOH·H-gArg-(R,S)mLys-Asp-Val-Tyr--OH]
- half-life (in vitro): 32 min

Molecule: N=C(N)NCCC[C@H](N)C(=O)N[C@@H](CCCCN)C(=O)N[C@@H](CC(=O)O)C(=O)O [TP5^(1-3), H-Arg-Lys-Asp-OH] (H-Arg-Lys-Asp-OH)
- restoration of the immune response (immune response): able to restore the immune response in thymectomized mice
- Log Number of plaques [1, 3]: 4.67
- Number of plaques formed [1, 4]: 48.917

Molecule: AcOH.multidot.H-gArg-(R,S)mLys-Asp--OH [TP5^(1-3) -RI1-2]
- Log Number of plaques [1, 3]: 4.78
- Number of plaques formed [1, 4]: 63.125
